≈ marks a conversion by molar mass, not a printed value. *1 amine or outer side, *2 acyl side, *3 side chain or, on linkers, in order; H or OH if unused. Where a SMILES comes first, the peptide text is derived from it. Bridges are numbered along the chain shown (N, C = ends). [ ]: non-standard residue; d: D form. The star is where a group is joined. ξ: configuration not given here. ξOrn(4,5-diOH) = O=C(C(CC(O)C(O)N[*:3])N[*:1])[*:2]; ξhTyr(βξ-OH,γξ-OH) = NC(C(=O)O)C(O)C(O)c1ccc(O)cc1; X2 = NC(=O)CC(O)C(N[*:1])C(=O)[*:2]; X3 = O=C(C1C(O)C(O)CN1[*:1])[*:2]; X1 = CCC(C)CC(C)CCCCCCCCC(=O)*; Hyp = O=C(O)[CH]1C[CH](O)CN1
Legend:
Candida albicans = assay: minimum fungicidal concentration (MFC), microbroth dilution assay, Candida albicans; assay type: cell-based; conditions: 24 h
Description: (§1) The antifungal properties may be illustrated with the minimum fungicidal concentration (MFC) determinations against certain Candida organisms in a microbroth dilution assay carried out in Yeast Nitrogen Base (Difco) with 1 percent dextrose (YNBD). In carrying out the assay, Compound I was solubilized in 10 percent dimethyl sulfoxide (DMSO) and diluted to 2560 μg/ml. The compound was then diluted to 256 μg/ml in YNBD. 0.15 ml of the suspension was dispensed to the top row of a 96-well plate (each well containing 0.15 ml of YNDB) resulting in a drug concentration of 128 μg/ml. Two-fold dilutions were then made from the top row to obtain final drug concentrations ranging from 128 to 0.06 μg/ml.
(§2) The yeast cultures, maintained on Sabouraud dextrose agar were transferred to YM broth (Difco) and incubated overnight at 35° C. with shaking (250 rpm). After incubation, each culture was diluted in sterile water to yield a final concentration of 1-5×10^6 colony forming units (CFU)/ml.
96-well microplates were inoculated using a MIC-2000 (Dynatech) which delivers 1.5 μl per well yielding a final inoculum per well of 1.5-7.5×10^3 cells. The microplates were incubated at 35° C. for 24 hours. The minimum inhibitory concentrations (MICs) were recorded as the lowest concentrations of drug showing no visible growth.
After recording the MIC, the plates were shaken to resuspend the cells. Thereafter, 1.5 μl samples from the wells in the 96-well microplate were transferred to a single well tray containing Sabouraud dextrose agar. The inoculated trays were incubated 24 hours at 28° C. and then read. The MFC is defined as the lowest concentration of drug showing no growth or less than 4 colonies per spot. The results (three samples) are seen in the following table: ______________________________________ Minimum Fungicidal Concentration (μg/ml) Fungi Compound Compound Strain No. IA IB ______________________________________ Candida albicans MY 1055 2 1 MY 1028 2 0.5 MY 1750 4 1 Candida tropicalis MY 1012 1 0.12 Candida pseudotropicalis MY 1100 4 2 ______________________________________

Candida tropicalis = assay: minimum fungicidal concentration (MFC), microbroth dilution assay, Candida tropicalis; assay type: cell-based; conditions: 24 h, strain MY 1012, YNBD
Description: as §1, §2
(§3) 96-well microplates were inoculated using a MIC-2000 (Dynatech) which delivers 1.5 μl per well yielding a final inoculum per well of 1.5-7.5×10^3 cells. […] The minimum inhibitory concentrations (MICs) were recorded as the lowest concentrations of drug showing no visible growth.
(§4) After recording the MIC, the plates were shaken to resuspend the cells. […] The inoculated trays were incubated 24 hours at 28° C. and then read. […]

Candida pseudotropicalis = assay: minimum fungicidal concentration (MFC), microbroth dilution assay, Candida pseudotropicalis; assay type: cell-based; conditions: Kluyveromyces marxianus, 24 h; strain MY 1100; YNBD
Description: as §1, §2, §3, §4

Pneumocystis carinii = assay: effectiveness against Pneumocystis carinii pneumonia in immunosuppressed rats; assay type: in vivo, Sprague-Dawley rats; conditions: subcutaneously twice daily for four days; for Reduction of Cysts / Log Mean # Cysts (± SEGM): rat lung; for Log Mean # Cysts (± SEGM): * significant (t-test); for Survivors: rats
Description: Compound I is useful for inhibiting or alleviating Pneumocystis carinii infections. In a representative study, the effectiveness of Compound I in rats were determined. Sprague-Dawley rats (weighing approximatley 250 g) were immunosuppressed with dexasone in the drinking water ([…]) and maintained on a low protein diet for 5 weeks to induce the development of Pneumocystis pneumonia from a latent infection. Before drug treatment 2 rats were sacrificed to confirm the presence of Pneumocystis carinii pneumonia (PCP); both rats had infections. The remaining rats (weighing approximately 150 g) were distributed into groups of 6 and injected twice daily for four days subcutaneously with compound in 0.25 ml of vehicle (10% DMSO in water or water). The control group of 5 rats received vehicle alone. All animals continued to receive dexasone in the drinking water and low protein diet during the drug treatment period. At the completion of treatment all animals were sacrificed, the lungs were removed and processed, and the extent of disease determined by microscopic analysis of stained slides. […] All groups were compared using the student t-test and results marked (*) are significant.

| Structure (SMILES) | MFC (Candida albicans; strain MY 1028, YNBD) [µg/mL] | MFC (Candida albicans; strain MY 1055, YNBD) [µg/mL] | MFC (Candida albicans; strain MY 1750, YNBD) [µg/mL] | MFC (Candida tropicalis) [µg/mL] | MFC (Candida pseudotropicalis) [µg/mL] | Reduction of Cysts (Pneumocystis carinii; 0.15 mg/kg) [%] | Log Mean # Cysts (± SEGM) (Pneumocystis carinii; 0.15 mg/kg) | Survivors (Pneumocystis carinii; 0.15 mg/kg) | Reduction of Cysts (Pneumocystis carinii; 0.30 mg/kg) [%] | Log Mean # Cysts (± SEGM) (Pneumocystis carinii; 0.30 mg/kg) | Survivors (Pneumocystis carinii; 0.30 mg/kg) | Reduction of Cysts (Pneumocystis carinii; 0.60 mg/kg) [%] | Log Mean # Cysts (± SEGM) (Pneumocystis carinii; 0.60 mg/kg) | Survivors (Pneumocystis carinii; 0.60 mg/kg) | other results |
| --- | --- | --- | --- | --- | --- | --- | --- | --- | --- | --- | --- | --- | --- | --- | --- |
| CCC(C)CC(C)CCCCCCCCC(=O)NC1CC(O)C(O)NC(=O)C2CC(O)CN2C(=O)C(C(O)CC(N)=O)NC(=O)C(C(O)C(O)c2ccc(O)cc2)NC(=O)C2CC(O)CN2C(=O)C(C(C)O)NC1=O (stereo not drawn) [Compound IA] (X1-[ξOrn(4,5-diOH)]T[Hyp][ξhTyr(βξ-OH,γξ-OH)][X2][Hyp]; lactam 1-C; configuration not given here) | 2 (≈ 1.88 µM) | 2 (≈ 1.88 µM) | 4 (≈ 3.76 µM) | 1 (≈ 0.939 µM) | 4 (≈ 3.76 µM) | 88.5 | 6.32 ± .17 | 6/6 | 94.6 | 5.99 ± .18 | 5/6 | 97.4 | 5.68 ± .19 | 6/6 | Reduction of Cysts (Pneumocystis carinii; 1.20 mg/kg): 97.9%; Log Mean # Cysts (± SEGM) (Pneumocystis carinii; 1.20 mg/kg): 5.58 ± .11; Survivors (Pneumocystis carinii; 1.20 mg/kg): 5/6 |
| CCC(C)CC(C)CCCCCCCCC(=O)NC1CC(O)C(O)NC(=O)C2C(O)C(O)CN2C(=O)C(C(O)CC(N)=O)NC(=O)C(C(O)C(O)c2ccc(O)cc2)NC(=O)C2CC(O)CN2C(=O)C(C(C)O)NC1=O (stereo not drawn) [Compound IB] (X1-[ξOrn(4,5-diOH)]T[Hyp][ξhTyr(βξ-OH,γξ-OH)][X2][X3]; lactam 1-C; configuration not given here) | 0.5 (≈ 0.462 µM) | 1 (≈ 0.925 µM) | 1 (≈ 0.925 µM) | 0.12 (≈ 0.111 µM) | 2 (≈ 1.85 µM) | 98.7 | 5.59 ± .11 | 6/6 | 99.4 | 5.22 ± .10 | 6/6 | 99.1 | 5.41 ± .17 | 6/6 | Reduction of Cysts (Pneumocystis carinii; 0.03 mg/kg): 95.0%; Log Mean # Cysts (± SEGM) (Pneumocystis carinii; 0.03 mg/kg): 6.16 ± .14; Survivors (Pneumocystis carinii; 0.03 mg/kg): 6/6; Reduction of Cysts (Pneumocystis carinii; 0.07 mg/kg): 96.8%; Log Mean # Cysts (± SEGM) (Pneumocystis carinii; 0.07 mg/kg): 5.97 ± .18; Survivors (Pneumocystis carinii; 0.07 mg/kg): 6/6 |

— patent US5366880A, “Antibiotic agent” (Merck & Co., Inc., priority 1993, dated 1994)
